One compound from US20090076050A1, “SYNERGISTIC TUMOR-KILLING EFFECT OF RADIATION AND BERBERINE COMBINED TREATMENT IN LUNG CANCER” (CHUNG SHAN MEDICAL U., priority 2007, published 2009) can be followed below.

Test [1] relates to A549 cells. Briefly: acridine orange staining of acidic vesicular organelles (microscopy and FACS). To be noted: for proportion of acridine orange-positive cells: 24 h, IR alone 12.5%. It counts as cell-based, human. The method, then: Autophagic cell death has been recognized as programmed cell death type II, it has been detected in a variety of cancer cells treated with radiation or chemotherapy. Therefore, it had been examined whether IR treatment combined with berberine induced autophagic cell death in A549 cells by electron microscopic analysis (FIG. 4A). Cells were harvested by trypsinization, and fixed with 2% glutaraldehyde, 4% paraformaldehyde and 1% tannic acid in 0.1 mol/L cacodylate buffer, pH 7.4, for 25 h. The cells were stained with an osmium-thiocarbohydrazide-osmium (OTO). After staining, the cells were dehydrated in a graded series of 70% to 100% EtOH and then immersed serially with 1:1 hexamethyldisilazane and absolute ethanol. One micrometer thin sections were cut, and the gels were coated with 500 Å of gold in a JEOL Vacuum sputter coater and viewed in a JEOL […] electron microscope with scanning attachment (JEOL, Tokyo, Japan). […] Autophagy is characterized by the development of AVOs, which is measured by vital staining of acridine orange. Acridine orange (Polysciences, Warrington, Pa.) was added to cells at a final concentration of 1 μg/mL for a period of 15 min. Pictures were taken with a fluorescent microscope (Nikon TE-300) equipped with a 490-nm band-pass blue excitation filters, a 500-nm dichroic mirror, and a 515-nm-long pass-barrier filter. To quantitate acidic vesicular organelles, Stained cells were collected for the FACScan (Becton Dickinson, San Jose, Calif.) using CellQuest software (Becton Dickinson). Acridine orange-positive cells with bright red fluorescence were detected among A549 cells 24 h after co-treated with berberine and IR (6 Gy), whereas they were sparse among non-treated cells or irradiated cells (FIG. 4B). […] FIG. 4C).

Test [2] has as its system A549 cells. Briefly: apoptosis hallmarks: DAPI stain, DNA electrophoresis, immunoblotting of caspase-3 and PARP. Format: cell-based, human. To be noted: 24 h. The method, then:
The role of apoptosis in the sensitivity of A549 cells to IR induced by berberine was further clarified by DAPI stain. DNA extraction and electrophoresis on agarose gel were carried out as described previously (Solary E, et al. Therapie 2001; 56:511-18). After the indicated treatments, cells were fixed with 3 mL of 4% paraformaldehyde. To stain the cells, 500 μL of a 0.5 μg/mL chilled solution of DAPI (Invitrogen) stain was added and allowed to sit for 5 min. The cells were then rinsed with PBS solution and counted under a fluorescent microscope. For positive control of DNA fragmentation and DAPI stain, A549 cells were treated with 30 μM etoposide for 24 h. […] This contention was further confirmed by the lack of apoptotic DNA fragmentation and activation of caspase-3 and poly-(ADP-ribose) polymerases (PARP) as analyzed by DNA electrophoresis and immunoblotting (FIG. 3B, 3C). After the indicated treatment, the resultant supernatants were separated in 12%˜18% polyacrylamide gels. The blot was incubated with a polyclonal antibody against LC3 (gift from T. Yoshimori), PARP, caspase-3, bcl-2, beclin-1 and β-actin (Santa Cruz biotechnology, USA) for 2 h, and then with an appropriate peroxidase-conjugated secondary antibody (Sigma) for 1 h at 37° C.

Test [3] deals with Lewis lung carcinoma (LLC). Description: Lewis lung carcinoma (LLC) tumor xenograft growth in mice. Format: in vivo, C57BL/6 mice. The following applies: for tumor volume relative to that before the treatment: LLC in C57BL/6 mice, p<0.001. The method, then:
The application of the additive cytotoxicity of IR combined with berberine in cancer treatment was further evidenced in an in vivo Lewis lung carcinoma (LLC) model in mice (Camphausen K, et al. Cancer Res 2001; 61:2207-11). Male C57BL/6 mice aged 4-6 weeks (National Taiwan University Animal Center, Taiwan) were used. To form a tumor xenograft, Lewis lung cells (2×10^6) were injected s.c. into the right hind limb. Animals were randomized into six groups: control, irradiation (IR) alone, berberine (1.0, 2.0 mg/kg) alone, and IR combined with berberine (1.0, 2.0 mg/kg). For tumor irradiation, mice were immobilized in a customized harness that exposed the right hind leg while shielding the remainder of the body by 3.5 cm of lead. Mice were exposed to a single dose of 8 Gy. Berberine was supplemented (1.0, 2.0 mg/kg, i.p.) to animals 1 day before the radiation exposure, and then twice a week for 4 weeks. To obtain tumor growth curves, three orthogonal tumor diameters were measured every 4-day intervals with a vernier caliper, and the mean values were calculated. The animals were killed (n=5 per group) at the indicated time points, and the primary tumor was dissected and examined. Primary tumor growth delay was measured by calipers in two dimensions, and the volumes were calculated according to the formula: tumor volume=(width) 2×length×0.52. LLC cells were injected s.c. into the right thighs of C57BL/6 mice 10 days before the IR therapy. The animals were randomized into six treatment groups: untreated, 8 Gy radiation in one dose, berberine alone (1.0, 2.0 mg/kg i.p., twice weekly), and berberine combined with IR treatment (FIG. 6A). Berberine was supplemented to the indicated groups one day before the IR treatment and continued for 4 weeks. The tumor volume at the primary site of each group was measured before treatment, and the average tumor volume was designated as T0. When the animals were sacrificed at the end of experiment, the xenografts were removed, and the tumor volume was determined and presented as fold of T0. The blood samples were collected for biochemical analysis. […] Berberine at 1.0 and 2.0 mg/kg, as used with IR, has shrunk the tumor volume down to approximately 48% and 22% of that before the treatment (FIG. 6C, p<0.001). Furthermore, immunohistochemistry was performed to detect the level of beclin-1 and bcl-2 proteins in the xenograft. Primary tumors were fixed and then embedded in paraffin. The sections were stained with anti-bcl-2 mouse-monoclonal antibody (1:100, Santa Cruz Biotechnology, Santa Cruz, Calif.) or anti-beclin-1 rabbit polyclonal antiserum (1:50, Santa Cruz Biotechnology, Santa Cruz, Calif.). The sections were then incubated with blocking buffer for 40 min at RT followed by incubation with the primary antibody over night at 4° C. […]

With `COc1ccc2cc3[n+](cc2c1OC)CCc1cc2c(cc1-3)OCO2` [berberine, Berberine], the “proportion of acridine orange-positive cells” value in the test on A549 cells [1] (6 Gy irradiation combined with 5.0 μM berberine) is on record as 50.3%; with A549 cells [1] (6 Gy irradiation combined with 10 μM berberine) it was 62.6%. Besides, in the test on A549 cells [1] (24 h after co-treatment with berberine and IR (6 Gy)), the “acridine orange-positive cells with bright red fluorescence (microscopy)” value was “detected”. Further, in the test on A549 cells [2] (berberine with IR, DNA electrophoresis and immunoblotting (FIG. 3B, 3C)), the “apoptotic DNA fragmentation and activation of caspase-3 and PARP” value is “lack”. Moreover, the “number of apoptotic cells (DAPI stain)” value with A549 cells [2] (co-treatment of berberine (>5.0 μM) with IR (6 Gy)) is recorded as “increased only slightly”. The figures for the “tumor volume relative to that before the treatment” value in test [3] (berberine 1.0 mg/kg i.p. twice weekly for 4 weeks with IR 8 Gy) and in test [3] (berberine 2.0 mg/kg i.p. twice weekly for 4 weeks with IR 8 Gy) were “approximately 48%” and ~22%, respectively. For the same compound, the “tumor size in tumor growth curves” value in test [3] (berberine (1.0, 2.0 mg/kg) combined with IR 8 Gy, LLC in mice (FIG. 6B)) is “considerable reduced size”. Besides, in test [3] (berberine alone (1.0, 2.0 mg/kg i.p., twice weekly), LLC in mice), the “growth of the xenograft” value is “slowed down”.
